# Source: ChEMBL document CHEMBL4219170, “Design, synthesis and biological evaluation of anti-pancreatic cancer activity of plinabulin derivatives based on the co-crystal structure” (Bioorg Med Chem, 2018)
# The source made the active and inactive calls. The calls are words filed in the database; no cut-off is given here.
# Assays:
# [1] = test system: BXPC-3; test: Antiproliferative activity against human BxPC3 cells after 72 hrs by sulforhodamine B assay; type: functional, cell-based; conditions: BXPC-3, 72 h
# [2] = Solubility of the compound in water after 24 hrs by HPLC analysis; type: physicochemical
# [3] = biological target: Tubulin (Homo sapiens) (UniProt P68371+Q9H4B7+P0DPH7+P68366+Q13509+Q71U36+P04350+Q3ZCM7+P07437+P68363+Q9BQE3+Q6PEY2+Q13885+Q9BVA1+Q9BUF5); test: Inhibition of tubulin polymerization (unknown origin) at 5 uM after 1 min in presence of GTP by fluorescence-based assay relative to control; type: protein-complex assay
# [4] = species: Homo sapiens; test: Inhibition of beta-tubulin polymerization in human BxPC3 cells at 5 nM after 24 hrs by DAPI staining-based fluorescence microscopic analysis; type: cell-based
# [5] = test system: BXPC-3; test: Antiproliferative activity against human BxPC3 cells at 12.5 nM after 72 hrs by MTT assay relative to control; type: functional
SMILES,IC50 [1] [nM],solubility [2] [µg/mL],inhibition [3] [%],inhibition [4],Activity [5] [%]
CC(C)(C)c1[nH]cnc1/C=c1\[nH]c(=O)/c(=C/c2cccc(C(=O)c3ccsc3)c2)[nH]c1=O,1.56,< 0.1,39.3,–,–
CC(C)(C)c1[nH]cnc1/C=c1\[nH]c(=O)/c(=C/c2cccc(C(=O)c3ccccn3)c2)[nH]c1=O,7.58,< 0.1,36.6,–,–
CC(C)(C)c1[nH]cnc1/C=c1\[nH]c(=O)/c(=C/c2cccc(C(=O)c3cccs3)c2)[nH]c1=O,1.72,< 0.1,46.4,–,–
CC(C)(C)c1[nH]cnc1/C=c1\[nH]c(=O)/c(=C/c2cccc(C(=O)c3cc[nH]c3)c2)[nH]c1=O,> 100,–,–,–,–
CC(C)(C)c1[nH]cnc1/C=c1\[nH]c(=O)/c(=C/c2cccc(C(=O)c3ccco3)c2)[nH]c1=O,9.23,< 0.1,–,–,–
CC(C)(C)c1[nH]cnc1/C=c1\[nH]c(=O)/c(=C/c2ccccc2)[nH]c1=O [PLINABULIN],4.28,< 0.1,18.3,Active,–
CN1CCN(C(=O)c2cccc(/C=c3\[nH]c(=O)/c(=C/c4ccccn4)[nH]c3=O)c2)CC1,> 500,16.302,–,–,–
CC(C)(C)c1[nH]cnc1/C=c1\[nH]c(=O)/c(=C/c2cccc(C(=O)N3CCCC3)c2)[nH]c1=O,325,0.454,–,–,–
CC(C)(C)c1[nH]cnc1/C=c1\[nH]c(=O)/c(=C/c2cccc(C(=O)N3CCOCC3)c2)[nH]c1=O,257,1.79,–,–,–
CC(C)(C)c1[nH]cnc1/C=c1\[nH]c(=O)/c(=C/c2cccc(C(=O)N3CCC3)c2)[nH]c1=O,> 500,4.231,–,–,–
CN1CCN(C(=O)c2cccc(/C=c3\[nH]c(=O)/c(=C/c4nc[nH]c4C(C)(C)C)[nH]c3=O)c2)CC1,> 500,85.568,–,–,–
CC(C)(C)c1[nH]cnc1/C=c1\[nH]c(=O)/c(=C/c2cccc(C(=O)c3ccccc3)c2)[nH]c1=O,–,< 0.1,–,–,–
CC(C)(C)c1[nH]cnc1/C=c1\[nH]c(=O)/c(=C/c2cccc(C(=O)N3CCCCC3)c2)[nH]c1=O,100,< 0.1,–,–,–
CC(C)(C)c1[nH]cnc1/C=c1\[nH]c(=O)/c(=C/c2cccc(C(=O)c3ccoc3)c2)[nH]c1=O,9.41,< 0.1,–,–,–
O=C(c1cccc(/C=c2\[nH]c(=O)/c(=C/c3ccccn3)[nH]c2=O)c1)N1CCC1,> 500,0.662,–,–,–
CC(C)(C)c1[nH]cnc1/C=c1\[nH]c(=O)/c(=C/c2cccc(C(=O)c3ccc[nH]3)c2)[nH]c1=O,> 100,–,–,–,–
O=C(c1cccc(/C=c2\[nH]c(=O)/c(=C/c3ccccn3)[nH]c2=O)c1)N1CCCCC1,> 500,< 0.1,–,–,–
CC(C)(C)c1[nH]cnc1/C=c1\[nH]c(=O)/c(=C/c2cccc(C(=O)c3cccnc3)c2)[nH]c1=O,4.05,< 0.1,28.8,–,–
CC(C)(C)c1[nH]cnc1/C=c1\[nH]c(=O)/c(=C/c2cccc(C(=O)c3cncs3)c2)[nH]c1=O,17.1,< 0.1,19.9,–,–
CC(C)(C)c1[nH]cnc1/C=c1\[nH]c(=O)/c(=C/c2cccc(C(=O)c3ccncc3)c2)[nH]c1=O,23.8,< 0.1,34.1,–,–
O=C(c1ccccc1)c1cccc(/C=c2\[nH]c(=O)/c(=C/c3ccccn3)[nH]c2=O)c1,6.27,< 0.1,–,–,85
